Data taken from ChEMBL document CHEMBL1135579, “Serine-threonine protein phosphatase inhibitors: development of potential therapeutic strategies” (J Med Chem, 2002).

Legend:
[1] = Inhibition of growth after 72 hr continuous exposure to test compounds in Ovarian A2780 tumor cell lines; format: functional; details: A2780, 72 h
[2] = Inhibition of growth after 72 hr continuous exposure to test compounds in Osteosarcoma 143B tumor cell lines; format: functional; details: Homo sapiens
[3] = Inhibition of growth after 72 hr continuous exposure to test compounds in Ovarian ADDP tumor cell lines; format: functional
[4] = Inhibition of growth after 72 hr continuous exposure to test compounds in Colon HCT 116 tumor cell lines; format: functional; details: Homo sapiens, HCT-116, 72 h
[5] = Inhibition of growth after 72 hr continuous exposure to test compounds in colon HT-29 tumor cell lines; format: functional; details: Homo sapiens, HT-29, 72 h
[6] = Exogenous inhibition concentration of Serine/threonine protein phosphatase 2B (PP2B)
[7] = system: Jurkat; assay: Inhibition of production of beta-galactosidase thymidine kinase RGA in Jurkat cells; format: functional, cell-based; details: Homo sapiens
[8] = system: Jurkat; assay: Inhibition of production of beta-galactosidase IL-2 RGA in Jurkat cells; format: functional, cell-based; details: Homo sapiens
[9] = system: HCT-8; assay: Reduction of tumor cell growth to 50% in Fostriecin analogues in HCT-8 colon cancer cell lines; format: functional; details: Homo sapiens
[10] = system: L1210; assay: Reduction of tumor cell growth to 50% in Fostriecin analogues in L1210 Leukemia cell lines; format: functional; details: Mus musculus
[11] = biological target: Serine/threonine-protein phosphatase PP1-gamma catalytic subunit (Homo sapiens, UniProt P36873); assay: Inhibition of Serine/threonine protein phosphatase 1 (PP1) mutants by natural toxins in wild type
[12] = Exogenous inhibition concentration of Serine/threonine protein phosphatase 5 (PP5)
[13] = Exogenous inhibition concentration of Serine/threonine protein phosphatase 2A (PP2A)
[14] = Exogenous inhibition concentration of Serine/threonine protein phosphatase 2C (PP2C); NI means no inhibition.
[15] = biological target: Serine/threonine-protein phosphatase PP1-gamma catalytic subunit (Homo sapiens, UniProt P36873, C127S); assay: Inhibition of Serine/threonine protein phosphatase 1 (PP1) mutants by natural toxins in C127S
[16] = biological target: Serine/threonine-protein phosphatase PP1-gamma catalytic subunit (Homo sapiens, UniProt P36873, D208A); assay: Inhibition of Serine/threonine protein phosphatase 1 (PP1) mutants by natural toxins in D208A
[17] = biological target: Serine/threonine-protein phosphatase PP1-gamma catalytic subunit (Homo sapiens, UniProt P36873, D220V); assay: Inhibition of Serine/threonine protein phosphatase 1 (PP1) mutants by natural toxins in D220V
[18] = biological target: Serine/threonine-protein phosphatase PP1-gamma catalytic subunit (Homo sapiens, UniProt P36873, E275R); assay: Inhibition of Serine/threonine protein phosphatase 1 (PP1) mutants by natural toxins in E275R
[19] = biological target: Serine/threonine-protein phosphatase PP1-gamma catalytic subunit (Homo sapiens, UniProt P36873, H248N); assay: Inhibition of Serine/threonine protein phosphatase 1 (PP1) mutants by natural toxins in H248N
[20] = biological target: Serine/threonine-protein phosphatase PP1-gamma catalytic subunit (Homo sapiens, UniProt P36873, R221S); assay: Inhibition of Serine/threonine protein phosphatase 1 (PP1) mutants by natural toxins in R221S
[21] = biological target: Serine/threonine-protein phosphatase PP1-gamma catalytic subunit (Homo sapiens, UniProt P36873, R96A); assay: Inhibition of Serine/threonine protein phosphatase 1 (PP1) mutants by natural toxins in R96A
[22] = biological target: Serine/threonine-protein phosphatase PP1-gamma catalytic subunit (Homo sapiens, UniProt P36873, Y272F); assay: Inhibition of Serine/threonine protein phosphatase 1 (PP1) mutants by natural toxins in Y272F
[23] = Exogenous inhibition of Serine/threonine protein phosphatase 1 (PP1); design: species or system Homo sapiens
[24] = biological target: Serine/threonine-protein phosphatase PP1-gamma catalytic subunit (Homo sapiens, UniProt P36873, N124D); assay: Inhibition of Serine/threonine protein phosphatase 1 (PP1) mutants by natural toxins in N124D
[25] = Inhibition of microcystin analogues to catalytic subunits of Serine/threonine protein phosphatase 1C

Serine/threonine-protein phosphatase PP1-gamma catalytic subunit (Homo sapiens, UniProt P36873, Y272F), sequence (P36873 2-323 Y272F limits assumed): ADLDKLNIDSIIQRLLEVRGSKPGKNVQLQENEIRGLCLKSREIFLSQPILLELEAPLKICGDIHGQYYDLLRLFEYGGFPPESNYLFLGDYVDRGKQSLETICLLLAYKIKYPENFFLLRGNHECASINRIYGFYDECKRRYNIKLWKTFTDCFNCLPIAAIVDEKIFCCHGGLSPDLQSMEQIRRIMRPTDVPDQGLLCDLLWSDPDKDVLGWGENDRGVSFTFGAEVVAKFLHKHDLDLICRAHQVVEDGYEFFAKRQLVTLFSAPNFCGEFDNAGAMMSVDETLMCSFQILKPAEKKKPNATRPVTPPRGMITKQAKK
Serine/threonine-protein phosphatase PP1-gamma catalytic subunit (Homo sapiens, UniProt P36873, R96A), sequence (P36873 2-323 R96A limits assumed): as the sequence (P36873 2-323 Y272F limits assumed) above, with R95A, F271Y counted along it
Serine/threonine-protein phosphatase PP1-gamma catalytic subunit (Homo sapiens, UniProt P36873, E275R), sequence (P36873 2-323 E275R limits assumed): as the sequence (P36873 2-323 Y272F limits assumed) above, with F271Y, E274R counted along it
Serine/threonine-protein phosphatase PP1-gamma catalytic subunit (Homo sapiens, UniProt P36873, N124D), sequence (P36873 2-323 N124D limits assumed): as the sequence (P36873 2-323 Y272F limits assumed) above, with N123D, F271Y counted along it
Serine/threonine-protein phosphatase PP1-gamma catalytic subunit (Homo sapiens, UniProt P36873, D220V), sequence (P36873 2-323 D220V limits assumed): as the sequence (P36873 2-323 Y272F limits assumed) above, with D219V, F271Y counted along it
Serine/threonine-protein phosphatase PP1-gamma catalytic subunit (Homo sapiens, UniProt P36873), sequence (P36873 2-323 limits assumed, stated change not applied): as the sequence (P36873 2-323 Y272F limits assumed) above, with F271Y counted along it
Serine/threonine-protein phosphatase PP1-gamma catalytic subunit (Homo sapiens, UniProt P36873, R221S), sequence (P36873 2-323 R221S limits assumed): as the sequence (P36873 2-323 Y272F limits assumed) above, with R220S, F271Y counted along it
Serine/threonine-protein phosphatase PP1-gamma catalytic subunit (Homo sapiens, UniProt P36873, C127S), sequence (P36873 2-323 C127S limits assumed): as the sequence (P36873 2-323 Y272F limits assumed) above, with C126S, F271Y counted along it
Serine/threonine-protein phosphatase PP1-gamma catalytic subunit (Homo sapiens, UniProt P36873, D208A), sequence (P36873 2-323 D208A limits assumed): as the sequence (P36873 2-323 Y272F limits assumed) above, with D207A, F271Y counted along it
Serine/threonine-protein phosphatase PP1-gamma catalytic subunit (Homo sapiens, UniProt P36873, H248N), sequence (P36873 2-323 H248N limits assumed): as the sequence (P36873 2-323 Y272F limits assumed) above, with H247N, F271Y counted along it

CCOC1OC(=O)[C@H]2[C@@H]1[C@@H]1CC[C@H]2O1 (stereo partly drawn)
GI50 [1]: 100 µM | GI50 [2]: 103 µM | GI50 [3]: 107 µM | GI50 [4]: 80 µM | GI50 [5]: 26 µM

Cn1cc2c3c1C(=O)C1=C(C3=NCC2)C2(C=C(Br)C(=O)C(Br)=C2)CCN1 [DISCORHABDIN]
IC50 [6]: 1.15 µM

O=C(O)[C@@H]1[C@H](C(=O)O)[C@H]2CC[C@@H]1O2
IC50 [7]: 42 µM | IC50 [8]: > 100 µM

C[C@@](O)(/C=C/[C@@H]1OC(=O)C=CC1O)[C@@H](C[C@@H](O)\C=C/C=C\C=C\CO)OP(=O)(O)O (stereo partly drawn)
GI50 [9]: 4.2 µM | GI50 [10]: 0.83 µM

COC[C@@H]([C@H](O)[C@H](O)C(=O)NCC[C@H](C)c1nc(/C=C/C[C@@H]2O[C@]3(C[C@@H](O)[C@@H]2C)O[C@H]([C@H](C[C@H](O)[C@H](C)[C@H](O)[C@H](C)/C=C(C)/C(C)=C/C=C/C(C)=C\C#N)OC)[C@H](OP(=O)(O)O)C3(C)C)co1)N(C)C [CALYCULIN A]
IC50 [11]: 0.00045 µM | IC50 [12]: < 0.003 µM | IC50 [13]: 0.0002 µM | IC50 [6]: > 10000 µM | IC50 [14]: no inhibition | IC50 [15]: 0.0022 µM | IC50 [16]: > 0.5 µM | IC50 [17]: 0.00014 µM | IC50 [18]: 0.0004 µM | IC50 [19]: > 0.5 µM | IC50 [20]: > 0.5 µM | IC50 [21]: 0.058 µM | IC50 [22]: 0.048 µM | IC50 [23]: 0.0003 µM | IC50 [24]: > 0.5 µM

CC[C@@H](C)[C@H]1NC(=O)[C@H]([C@@H](C)CC)NC(=O)[C@H]([C@@H](C)CC)NC(=O)[C@H]([C@@H](C)CC)NC(=O)[C@@H](Cc2ccccc2)NC(=O)[C@H](Cc2ccccc2)NC(=O)[C@@H]2CCCN2C(=O)[C@@H]2CCCN2C(=O)[C@H](C(C)C)NC1=O
IC50 [6]: 5 µM

CO[C@@H](Cc1ccccc1)[C@@H](C)/C=C(C)/C=C/[C@@H]1NC(=O)[C@H](C)NC(=O)[C@@H](C)[C@H](C(=O)O)CC(=O)[C@H](CC(C)C)NC(=O)[C@@H](C)NC(=O)CN(C)C(=O)CC[C@H](C(=O)O)NC(=O)[C@H]1C
IC50 [25]: 0.0008 µM

CCCOC(=O)C1C(C(=O)O)C2CC[C@H]1O2 (stereo partly drawn)
GI50 [1]: 110 µM | GI50 [2]: 450 µM | GI50 [3]: 315 µM | GI50 [4]: 75 µM | GI50 [5]: 15 µM

C[C@@](O)(/C=C/[C@H]1CC=CC(=O)O1)[C@@H](C[C@@H](O)\C=C/C=C\C=C\CO)OP(=O)(O)O [FOSTRIECIN]
GI50 [9]: 2.3 µM | GI50 [10]: 0.21 µM | IC50 [23]: 131 µM

COC(=O)C1C(C(=O)O)C2CC[C@H]1O2 (stereo partly drawn)
GI50 [1]: 100 µM | GI50 [2]: 118 µM | GI50 [3]: 180 µM | GI50 [4]: 76 µM | GI50 [5]: 105 µM

C[C@@](O)(/C=C/COC(=O)/C=C\CO)[C@@H](C[C@@H](O)\C=C/C=C\C=C\CO)OP(=O)(O)O
GI50 [9]: 56 µM | GI50 [10]: > 1 µM

O=C1OC(=O)C2C3CCC(O3)C12 (stereo not drawn)
IC50 [7]: 100 µM | GI50 [1]: 50 µM | GI50 [2]: 43 µM | GI50 [3]: 47 µM | GI50 [4]: 24 µM | GI50 [5]: 33 µM | IC50 [8]: > 22 µM

CO[C@@H](Cc1ccccc1)[C@@H](C)/C=C(C)/C=C/[C@@H]1NC(=O)[C@H](C)NC(=O)[C@@H](C)[C@H](C(=O)O)CC(=O)[C@H](CC(C)C)NC(=O)[C@@H](C)NC(=O)CN(C2CCCCC2)C(=O)CC[C@H](C(=O)O)NC(=O)[C@H]1C
IC50 [25]: 0.0008 µM

C/C=C1/C(=O)C[C@@H](C(=O)O)[C@H](C)C(=O)N[C@@H](C(C)C)C(=O)N[C@@H](/C=C/C(C)=C/[C@H](C)[C@H](Cc2ccccc2)OC)[C@H](C)C(=O)N[C@@H](C(=O)O)CCC(=O)N1C
IC50 [6]: 8700 µM | IC50 [14]: no inhibition | IC50 [23]: 0.0018 µM
